Measured values reported in US20250282746A1, “HALOGEN-SUBSTITUTED ISOINDOLINE COMPOUND AND USE THEREOF” (CHENGDU FENDI PHARMACEUTICAL CO., LTD., priority 2022, published 2025).
pIC50: −log10 of the molar value. Read-outs that look alike come from different tables or passages of the source.

Key:
MV-4-11 cells = assay: Antiproliferative activity against MV-4-11 cells (CellTiter-Glo, 72 h); format: cell-based; settings: Homo sapiens, read-out: Antiproliferative activity IC50
Experimental: MV411 cells in the logarithmic growth phase were diluted in a medium (RPMI+10% FBS) and plated at 5,000 cells/well in 96-well whole black plates (WHB) with 50 μL/well. After plating, the plates were incubated in an incubator at 5% CO2 and 37° C. for 24 h before the compounds were added. The compounds were prepared into a 10 mM stock solution in DMSO and diluted in a culture medium to the desired concentrations (a final DMSO concentration of 0.2%). […] The plates were incubated at 5% CO2 and 37° C. for 72 h. After the incubation was complete, the plates were equilibrated at room temperature for 30 min. CellTiter-Glo® Reagent (Promega G7573) was added at 100 μL/well. The plates were shaken for 12 min on a microplate shaker. The luminescence value was measured at room temperature by the GloMax navigator (Promega GM2010).

GSPT1 protein = biological target: T1, GSPT1 protein (Homo sapiens, UniProt P15170); assay: Degradation of GSPT1 protein in NB-4 cells (Western blot); format: cell-based; settings: for inhibition at 1 µM: read-out: GSPT1 degradation
T1 construct: The whole cell lysate was prepared using a RIPA lysis buffer; endogenous in cells; host or cells: NB-4 cells
Experimental: 150 μL of DMSO and the compounds (1 μM) were added, and the mixture was incubated in an incubator at 5% CO2 and 37° C. for 6 h. The cells were centrifuged, and the culture medium was discarded. PBS was added for washing and then discarded. The whole cell lysate was prepared using a RIPA lysis buffer containing a protease inhibitor cocktail and a phosphatase inhibitor, and incubated on ice for 30 min. The mixture was centrifuged, and the cell debris was discarded. The whole cell lysate supernatant was collected and transferred to a fresh EP tube. Samples were prepared using a loading buffer after a BCA protein assay. The samples were incubated in a metal bath at 100° C. for 10 min.
The samples were electrophoretically separated from proteins on a 4-20% precast gel (SDS-PAGE gel), transferred to a PVDF membrane, blocked with 5% NFDM/TBST for 1 h at room temperature, co-incubated overnight at 4° C. with the primary antibody, and co-incubated for 2 h at room temperature with the secondary antibody on the next day. The signals were detected on the […]™ imaging system.

T1 sequence (P15170 whole entry): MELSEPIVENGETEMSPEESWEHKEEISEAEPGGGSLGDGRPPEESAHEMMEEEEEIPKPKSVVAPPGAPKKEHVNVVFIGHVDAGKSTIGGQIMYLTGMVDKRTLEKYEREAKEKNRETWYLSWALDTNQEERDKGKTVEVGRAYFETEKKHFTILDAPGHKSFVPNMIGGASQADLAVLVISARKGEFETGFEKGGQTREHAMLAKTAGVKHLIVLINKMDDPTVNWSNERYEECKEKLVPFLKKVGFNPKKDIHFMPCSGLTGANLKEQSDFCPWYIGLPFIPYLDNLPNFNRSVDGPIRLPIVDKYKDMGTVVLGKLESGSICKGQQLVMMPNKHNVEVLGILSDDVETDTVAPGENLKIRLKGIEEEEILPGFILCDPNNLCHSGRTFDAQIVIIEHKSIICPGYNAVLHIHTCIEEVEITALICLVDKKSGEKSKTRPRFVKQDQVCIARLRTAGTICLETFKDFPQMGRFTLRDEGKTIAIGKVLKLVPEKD

Structure (SMILES) | pIC50 (MV-4-11 cells; MV4-11, MV-4-11 cells, 72 h) | inhibition at 1 µM (GSPT1 protein; NB-4 cells, compound 1 μM, 6 h) | also measured
N#Cc1ccc2c(c1F)CN(C1CCC(=O)NC1=O)C2=O (stereo not drawn) [FDAB-1] | < 6.00 | < 25% | –
CC(C)(C)OC(=O)NCc1ccc2c(c1F)CN(C1CCC(=O)NC1=O)C2=O (stereo not drawn) [FDAB-2] | < 6.00 | < 25% | –
NCc1ccc2c(c1F)CN(C1CCC(=O)NC1=O)C2=O (stereo not drawn) [FDAB-3] | < 6.00 | < 25% | –
N#Cc1cc2c(cc1F)C(=O)N(C1CCC(=O)NC1=O)C2 (stereo not drawn) [FDAB-4] | < 6.00 | < 25% | –
CC(C)(C)OC(=O)NCc1cc2c(cc1F)C(=O)N(C1CCC(=O)NC1=O)C2 (stereo not drawn) [FDAB-5] | < 6.00 | < 25% | –
NCc1cc2c(cc1F)C(=O)N(C1CCC(=O)NC1=O)C2 (stereo not drawn) [FDAB-6] | 7.00 to 8.00 | 50 to 80% | –
N#Cc1cc(F)c2c(c1)CN(C1CCC(=O)NC1=O)C2=O (stereo not drawn) [FDAB-7] | < 6.00 | < 25% | –
CC(C)(C)OC(=O)NCc1cc(F)c2c(c1)CN(C1CCC(=O)NC1=O)C2=O (stereo not drawn) [FDAB-8] | < 6.00 | < 25% | –
NCc1cc(F)c2c(c1)CN(C1CCC(=O)NC1=O)C2=O (stereo not drawn) [FDAB-9] | < 6.00 | < 25% | –
N#Cc1ccc2c(c1Cl)CN(C1CCC(=O)NC1=O)C2=O (stereo not drawn) [FDAB-10] | < 6.00 | < 25% | –
CC(C)(C)OC(=O)NCc1ccc2c(c1Cl)CN(C1CCC(=O)NC1=O)C2=O (stereo not drawn) [FDAB-11] | < 6.00 | < 25% | –
NCc1ccc2c(c1Cl)CN(C1CCC(=O)NC1=O)C2=O (stereo not drawn) [FDAB-12] | < 6.00 | < 25% | –
N#Cc1cc2c(cc1Cl)C(=O)N(C1CCC(=O)NC1=O)C2 (stereo not drawn) [FDAB-13] | < 6.00 | < 25% | –
CC(C)(C)OC(=O)NCc1cc2c(cc1Cl)C(=O)N(C1CCC(=O)NC1=O)C2 (stereo not drawn) [FDAB-14] | < 6.00 | < 25% | –
NCc1cc2c(cc1Cl)C(=O)N(C1CCC(=O)NC1=O)C2 (stereo not drawn) [FDAB-15] | < 6.00 | < 25% | –
NCc1cc(F)cc2c1CN(C1CCC(=O)NC1=O)C2=O (stereo not drawn) [FDAB-17] | 6.00 to 7.00 | < 25% | –
[2H]c1c([2H])c(C(=O)NCc2ccc3c(c2F)CN(C2CCC(=O)NC2=O)C3=O)c([2H])c([2H])c1Cl (stereo not drawn) [FDAB-18] | – | – | pIC50 (MV-4-11 cells; MV4-11, 72 h): 7.00 to 8.00; inhibition at 1 µM (GSPT1 protein; NB-4, 6 h): > 80%
O=C1CCC(N2Cc3cc(CNC(=O)c4cc5ccccc5o4)c(F)cc3C2=O)C(=O)N1 (stereo not drawn) [FDAB-19] | 8.00 to 9.00 | > 80% | –
O=C1CCC(N2Cc3cc(CNC(=O)c4cc5cc(Cl)ccc5o4)c(F)cc3C2=O)C(=O)N1 (stereo not drawn) [FDAB-20] | 8.00 to 9.00 | > 80% | –
O=C1CCC(N2Cc3cc(CNC(=O)c4cc5ccccc5o4)cc(F)c3C2=O)C(=O)N1 (stereo not drawn) [FDAB-21] | < 6.00 | < 25% | –

Structure (SMILES) | pIC50 (MV-4-11 cells; MV4-11, MV-4-11 cells, 72 h) | inhibition at 1 µM (GSPT1 protein; NB-4 cells, compound 1 μM, 6 h) | also measured
O=C1CCC(N2Cc3cc(CNC(=O)c4cc5cc(Cl)ccc5o4)cc(F)c3C2=O)C(=O)N1 (stereo not drawn) [FDAB-22] | < 6.00 | < 25% | –
O=C1CCC(N2Cc3cc(CNC(=O)c4ccc(Cl)cc4)c(F)cc3C2=O)C(=O)N1 (stereo not drawn) [FDAB-23] | 7.00 to 8.00 | > 80% | –
O=C1CCC(N2Cc3cc(CNC(=O)c4cc5ccccc5[nH]4)c(F)cc3C2=O)C(=O)N1 (stereo not drawn) [FDAB-24] | 8.00 to 9.00 | > 80% | –
O=C1CCC(N2Cc3cc(CNC(=O)c4ccccc4)c(F)cc3C2=O)C(=O)N1 (stereo not drawn) [FDAB-25] | < 6.00 | < 25% | –
O=C1CCC(N2Cc3cc(CNC(=O)c4ccc(F)cc4)c(F)cc3C2=O)C(=O)N1 (stereo not drawn) [FDAB-26] | < 6.00 | < 25% | –
Nc1ccc(C(=O)NCc2cc3c(cc2F)C(=O)N(C2CCC(=O)NC2=O)C3)cc1 (stereo not drawn) [FDAB-27] | < 6.00 | < 25% | –
O=C1CCC(N2Cc3cc(CNC(=O)c4ccc(O)cc4)c(F)cc3C2=O)C(=O)N1 (stereo not drawn) [FDAB-28] | < 6.00 | < 25% | –
O=C1CCC(N2Cc3cc(CNC(=O)c4ccccn4)c(F)cc3C2=O)C(=O)N1 (stereo not drawn) [FDAB-29] | < 6.00 | < 25% | –
O=C1CCC(N2Cc3cc(CNC(=O)c4cccnc4)c(F)cc3C2=O)C(=O)N1 (stereo not drawn) [FDAB-30] | < 6.00 | < 25% | –
O=C1CCC(N2Cc3cc(CNC(=O)c4ccncc4)c(F)cc3C2=O)C(=O)N1 (stereo not drawn) [FDAB-31] | < 6.00 | < 25% | –
O=C1CCC(N2Cc3cc(CNC(=O)c4nc5ccccc5s4)c(F)cc3C2=O)C(=O)N1 (stereo not drawn) [FDAB-32] | 7.00 to 8.00 | > 80% | –
O=C1CCC(N2Cc3cc(CNC(=O)c4nc5ccccc5[nH]4)c(F)cc3C2=O)C(=O)N1 (stereo not drawn) [FDAB-33] | < 6.00 | < 25% | –
Nc1cccc(C(=O)NCc2cc3c(cc2F)C(=O)N(C2CCC(=O)NC2=O)C3)c1 (stereo not drawn) [FDAB-34] | < 6.00 | < 25% | –
O=C1CCC(N2Cc3cc(CNC(=O)c4cc5cc(F)ccc5o4)c(F)cc3C2=O)C(=O)N1 (stereo not drawn) [FDAB-35] | 7.00 to 8.00 | 50 to 80% | –
O=C1CCC(N2Cc3cc(CNC(=O)c4cccc(O)c4)c(F)cc3C2=O)C(=O)N1 (stereo not drawn) [FDAB-36] | < 6.00 | < 25% | –
COc1cccc(C(=O)NCc2cc3c(cc2F)C(=O)N(C2CCC(=O)NC2=O)C3)c1 (stereo not drawn) [FDAB-37] | 7.00 to 8.00 | 50 to 80% | –
O=C1CCC(N2Cc3cc(CNC(=O)c4ccncn4)c(F)cc3C2=O)C(=O)N1 (stereo not drawn) [FDAB-38] | < 6.00 | < 25% | –
O=C1CCC(N2Cc3cc(CNC(=O)C4CC4)c(F)cc3C2=O)C(=O)N1 (stereo not drawn) [FDAB-40] | < 6.00 | < 25% | –
O=C1CCC(N2Cc3cc(CNC(=O)C4CCCC4)c(F)cc3C2=O)C(=O)N1 (stereo not drawn) [FDAB-41] | < 6.00 | < 25% | –
O=C1CCC(N2Cc3cc(CNC(=O)C4CCCCC4)c(F)cc3C2=O)C(=O)N1 (stereo not drawn) [FDAB-42] | < 6.00 | < 25% | –

Structure (SMILES) | pIC50 (MV-4-11 cells; MV4-11, MV-4-11 cells, 72 h) | inhibition at 1 µM (GSPT1 protein; NB-4 cells, compound 1 μM, 6 h) | also measured
O=C1CCC(N2Cc3cc(CNC(=O)c4cnco4)c(F)cc3C2=O)C(=O)N1 (stereo not drawn) [FDAB-43] | < 6.00 | < 25% | –
O=C1CCC(N2Cc3cc(CNC(=O)c4cncs4)c(F)cc3C2=O)C(=O)N1 (stereo not drawn) [FDAB-44] | < 6.00 | < 25% | –
O=C1CCC(N2Cc3cc(CNC(=O)c4ccc(Cl)cn4)c(F)cc3C2=O)C(=O)N1 (stereo not drawn) [FDAB-57] | – | – | GSPT1 degradation (GSPT1 protein; NB-4 cells, compound 1 μM, 6 h): D (D denotes a percentage of degradation less than 25%)
CC(C)(C)c1ccc(C(=O)NCc2ccc3c(c2F)CN(C2CCC(=O)NC2=O)C3=O)c(N)c1 (stereo not drawn) [FDAB-172] | > 9.00 | – | –
CC(C)(C)c1ccc(C(=O)NCc2ccc3c(c2F)CN(C2CCC(=O)NC2=O)C3=O)cc1O (stereo not drawn) [FDAB-173] | > 9.00 | – | –
CC(C)(CN)c1ccc(C(=O)NCc2ccc3c(c2F)CN(C2CCC(=O)NC2=O)C3=O)cc1 (stereo not drawn) [FDAB-174] | 7.00 to 8.00 | – | –
NCc1ccc(-c2ccc(C(=O)NCc3ccc4c(c3F)CN(C3CCC(=O)NC3=O)C4=O)cc2)cc1 (stereo not drawn) [FDAB-175] | > 9.00 | – | –
Nc1cc(-c2ccccc2)ccc1C(=O)NCc1ccc2c(c1F)CN(C1CCC(=O)NC1=O)C2=O (stereo not drawn) [FDAB-176] | 8.00 to 9.00 | – | –
Nc1ccc(-c2ccc(C(=O)NCc3ccc4c(c3F)CN(C3CCC(=O)NC3=O)C4=O)cc2)cc1 (stereo not drawn) [FDAB-177] | > 9.00 | – | –
COc1cc(C(=O)NCc2ccc3c(c2F)CN(C2CCC(=O)NC2=O)C3=O)c(N)cc1OCc1ccccc1 (stereo not drawn) [FDAB-178] | > 9.00 | – | –
O=C1CCC(N2Cc3c(ccc(CNC(=O)c4ccc(OCc5ccccc5)c(O)c4)c3F)C2=O)C(=O)N1 (stereo not drawn) [FDAB-179] | > 9.00 | – | –
CC(CCC(=O)NCc1ccc2c(c1F)CN(C1CCC(=O)NC1=O)C2=O)(c1ccc(O)cc1)c1ccc(O)cc1 (stereo not drawn) [FDAB-180] | 7.00 to 8.00 | – | –
N[C@@H](CC(=O)NCc1ccc2c(c1F)CN(C1CCC(=O)NC1=O)C2=O)C(c1ccccc1)c1ccccc1 (stereo partly drawn) [FDAB-181] | 8.00 to 9.00 | – | –
NCCc1ccc(NC(=O)NCc2ccc3c(c2F)CN(C2CCC(=O)NC2=O)C3=O)cc1Cl (stereo not drawn) [FDAB-182] | 8.00 to 9.00 | – | –
O=C1CCC(N2Cc3c(ccc(CNC(=O)Nc4ccc(CCO)c(Cl)c4)c3F)C2=O)C(=O)N1 (stereo not drawn) [FDAB-183] | > 9.00 | – | –
Nc1ccc(-c2ccc(C#CC(=O)NCc3ccc4c(c3F)CN(C3CCC(=O)NC3=O)C4=O)cc2)cc1 (stereo not drawn) [FDAB-184] | > 9.00 | – | –
O=C1CCC(N2Cc3cc(CNC(=O)Nc4ccc(CCO)c(Cl)c4)ccc3C2=O)C(=O)N1 (stereo not drawn) [FDAB-185] | 8.00 to 9.00 | – | –
O=C(C#Cc1ccc(-c2ccc(O)cc2)cc1)NCc1ccc2c(c1F)CN(C1CCC(=O)NC1=O)C2=O (stereo not drawn) [FDAB-186] | > 9.00 | – | –
O=C(C#Cc1ccc(-c2ccc(CCO)cc2)cc1)NCc1ccc2c(c1F)CN(C1CCC(=O)NC1=O)C2=O (stereo not drawn) [FDAB-187] | > 9.00 | – | –
NCCc1ccc(-c2ccc(C#CC(=O)NCc3ccc4c(c3F)CN(C3CCC(=O)NC3=O)C4=O)cc2)cc1 (stereo not drawn) [FDAB-188] | 8.00 to 9.00 | – | –
